pIC50: −log10 of the molar value.
Assay: Inhibition of ADAM17 in human A549 cells assessed as potentiation of gefitinib-mediated inhibition of cell viability by measuring gefitinib IC50 at 40 uM incubated for 1 hr followed by gefitinib addition measured after 72 hrs by CellTiter-Glo assay (Rvb = 8.4 microM)

O=C1NC[C@@H](Cc2ccc(O)cc2)N(C[C@@H]2CCCN2C[C@@H](Cc2ccc3ccccc3c2)N2C[C@H](Cc3ccc(O)cc3)N(CCC34CC5CC(CC(C5)C3)C4)C(=O)C2=O)C1=O
pIC50: 5.72
